{"source": "patent US9518284B2", "about": "(priority 2001, dated 2016)", "system": "yeast cells overexpressing WT alpha-synuclein", "assay_type": "cell-based, Saccharomyces cerevisiae", "key": {"[1]": {"settings": "preliminary study, concentration not given"}, "[2]": {"settings": "preliminary study, agent at 5 μM"}}, "note": "Like-named read-outs stand apart in the source and are kept apart here.", "data": [{"compound": "C=CCC(N)C(=O)O", "note": "(racemic) [DL-C-allylglycine]", "values": [{"measurement": "ability to alleviate toxicity caused by alpha-synuclein overexpression", "setting": "preliminary study, agent at 0.025 mg/ml", "value": "alleviate toxocity"}]}, {"compound": "O=c1cn[nH]c(=O)[nH]1", "note": "[6-azauracil]", "values": [{"measurement": "effect on the growth of yeast cells overexpressing WT alpha-synuclein", "setting": "agent at 30 μg/ml", "value": "negative effect on the growth"}]}, {"compound": "C[C@@H](O)CC(=O)O", "note": "[(R)-(−)-3-hydroxybutirate]", "values": [{"measurement": "ability to alleviate toxicity caused by alpha-synuclein overexpression", "setting": "[1]", "value": "alleviate toxocity"}]}, {"compound": "[Ca+2].[Cl-].[Cl-]", "note": "[CaCl2]", "values": [{"measurement": "effect on the growth of yeast cells overexpressing WT alpha-synuclein", "setting": "agent at 0.5 M", "value": "negative effect on the growth"}]}, {"compound": "[Cl-].[Cl-].[Co+2]", "note": "[CoCl2]", "values": [{"measurement": "effect on the growth of yeast cells overexpressing WT alpha-synuclein", "value": "negative effect on the growth"}]}, {"compound": "Nc1c(/N=N/c2ccc(-c3ccc(/N=N/c4cc(S(=O)(=O)O)c5ccccc5c4N)cc3)cc2)cc(S(=O)(=O)O)c2ccccc12", "note": "[Congo Red]", "values": [{"measurement": "ability to alleviate toxicity caused by alpha-synuclein overexpression", "setting": "[2]", "value": "alleviate toxocity"}]}, {"compound": "[Cl-].[Cs+]", "note": "[CsCl]", "values": [{"measurement": "effect on the growth of yeast cells overexpressing WT alpha-synuclein", "setting": "agent at 0.1 M", "value": "negative effect on the growth"}]}, {"compound": "O=S(=O)([O-])[O-].[Cu+2]", "note": "[CuSo4]", "values": [{"measurement": "effect on the growth of yeast cells overexpressing WT alpha-synuclein", "setting": "agent at 2.5 mM", "value": "negative effect on the growth"}, {"measurement": "effect on the growth of yeast cells overexpressing WT alpha-synuclein", "setting": "agent at 5 mM", "value": "negative effect on the growth"}]}, {"compound": "C[C@]12CC[C@H]3[C@@H](CCC4=CC(=O)CC[C@@]43C)[C@@H]1CC[C@@H]2C(=O)CO", "note": "[Deoxycorticosterone]", "values": [{"measurement": "ability to alleviate toxicity caused by alpha-synuclein overexpression", "setting": "[1]", "value": "alleviate toxocity"}]}, {"compound": "O=S(=O)([O-])[O-].O=S(=O)([O-])[O-].O=S(=O)([O-])[O-].[Fe+3].[Fe+3]", "note": "[Fe2(SO4)3]", "values": [{"measurement": "effect on the growth of yeast cells overexpressing WT alpha-synuclein", "setting": "agent at 8.5 mM", "value": "negative effect on the growth"}]}, {"compound": "[Cl][Fe][Cl]", "note": "[FeCl2]", "values": [{"measurement": "effect on the growth of yeast cells overexpressing WT alpha-synuclein", "setting": "agent at 10 mM", "value": "negative effect on the growth"}, {"measurement": "effect on the growth of yeast cells overexpressing WT alpha-synuclein", "setting": "agent at 15 mM", "value": "negative effect on the growth"}, {"measurement": "effect on the growth of yeast cells overexpressing WT alpha-synuclein", "setting": "agent at 23 mM", "value": "negative effect on the growth"}, {"measurement": "effect on the growth of yeast cells overexpressing WT alpha-synuclein", "setting": "agent at 50 mM", "value": "negative effect on the growth"}]}, {"compound": "O=S(=O)([O-])[O-].[Fe+2]", "note": "[FeSO4]", "values": [{"measurement": "effect on the growth of yeast cells overexpressing WT alpha-synuclein", "setting": "agent at 20 mM", "value": "negative effect on the growth"}]}, {"compound": "Cl.N=C(N)N", "note": "[GuHCl]", "values": [{"measurement": "effect on the growth of yeast cells overexpressing WT alpha-synuclein", "setting": "agent at 20 (unit not given)", "value": "negative effect on the growth"}]}, {"compound": "CN[C@H]1C[C@@H](N)[C@H](O)[C@@H](O[C@@H]2O[C@H](CO)[C@H](O)[C@@H]3OC4(O[C@H]23)O[C@H]([C@@H](N)CO)[C@H](O)[C@H](O)[C@H]4O)[C@@H]1O", "note": "(some centres unmarked) [Hygromycin B]", "values": [{"measurement": "ability to alleviate toxicity caused by alpha-synuclein overexpression", "setting": "preliminary study, agent at 50 μg/ml", "value": "alleviate toxocity"}]}, {"compound": "N[C@@H](Cc1ccc(O)c(O)c1)C(=O)O", "note": "[L-DOPA, L-dihydroxyphenylalanine]", "values": [{"measurement": "ability to alleviate toxicity caused by alpha-synuclein overexpression", "setting": "[1]", "value": "alleviate toxocity"}]}, {"compound": "CCSCC[C@H](N)C(=O)O", "note": "[L-ethionine]", "values": [{"measurement": "ability to alleviate toxicity caused by alpha-synuclein overexpression", "setting": "preliminary study, agent at 1 μg/ml", "value": "alleviate toxocity"}]}, {"compound": "[Cl-].[Cl-].[Mg+2]", "note": "[MgCl2]", "values": [{"measurement": "effect on the growth of yeast cells overexpressing WT alpha-synuclein", "setting": "agent at 0.5 M", "value": "negative effect on the growth"}]}, {"compound": "O=S(=O)([O-])[O-].[Mg+2]", "note": "[MgSO4]", "values": [{"measurement": "effect on the growth of yeast cells overexpressing WT alpha-synuclein", "setting": "agent at 0.5 M", "value": "negative effect on the growth"}]}, {"compound": "[Cl-].[Rb+]", "note": "[RbCl]", "values": [{"measurement": "effect on the growth of yeast cells overexpressing WT alpha-synuclein", "setting": "agent at 0.2 M", "value": "negative effect on the growth"}]}, {"compound": "[Cl-].[Cl-].[Sr+2]", "note": "[SrCl2]", "values": [{"measurement": "effect on the growth of yeast cells overexpressing WT alpha-synuclein", "setting": "agent at 0.5 M", "value": "negative effect on the growth"}]}, {"compound": "O=C[C@@H](O)[C@H](O)[C@H](O)CO", "note": "[arabinose]", "values": [{"measurement": "effect on the growth of yeast cells overexpressing WT alpha-synuclein", "setting": "agent at 2% in medium", "value": "negative effect on the growth"}]}, {"compound": "C[C@H]1CCC/C=C/[C@@H]2C[C@H](O)C[C@H]2[C@H](O)/C=C/C(=O)O1", "note": "[brefeldin A]", "values": [{"measurement": "effect on the growth of yeast cells overexpressing WT alpha-synuclein", "setting": "agent at 100 μg/ml", "value": "negative effect on the growth"}]}, {"compound": "CC[C@@]1(O)C(=O)OCc2c1cc1n(c2=O)Cc2cc3ccccc3nc2-1", "note": "[camptothecin]", "values": [{"measurement": "effect on the growth of yeast cells overexpressing WT alpha-synuclein", "setting": "agent at 5 μg/ml", "value": "negative effect on the growth"}, {"measurement": "ability to alleviate toxicity caused by alpha-synuclein overexpression", "setting": "preliminary study, agent at 0.1 μg/ml", "value": "alleviate toxocity"}]}, {"compound": "O=C(O)CCCc1ccc(N(CCCl)CCCl)cc1", "note": "[chlorambucil]", "values": [{"measurement": "effect on the growth of yeast cells overexpressing WT alpha-synuclein", "setting": "agent at 3 mM", "value": "negative effect on the growth"}]}, {"compound": "CCN(CC)CCCC(C)Nc1ccnc2cc(Cl)ccc12", "note": "(centres unmarked) [chloroquine]", "values": [{"measurement": "ability to alleviate toxicity caused by alpha-synuclein overexpression", "setting": "preliminary study, agent at 4.2 μM", "value": "alleviate toxocity"}]}, {"compound": "O=C(O)c1cc(/N=N/c2ccc(-c3ccc(/N=N/c4ccc(O)c(C(=O)O)c4)cc3)cc2)ccc1O", "note": "[chrysamine G]", "values": [{"measurement": "ability to alleviate toxicity caused by alpha-synuclein overexpression", "setting": "preliminary study, agent at 1.0 μM", "value": "alleviate toxocity"}]}, {"compound": "Oc1c(I)cc(Cl)c2cccnc12", "note": "[clioquinol]", "values": [{"measurement": "ability to alleviate toxicity caused by alpha-synuclein overexpression", "setting": "[2]", "value": "alleviate toxocity"}]}, {"compound": "NC=O", "note": "[formamide]", "values": [{"measurement": "effect on the growth of yeast cells overexpressing WT alpha-synuclein", "setting": "agent at 2% in medium", "value": "negative effect on the growth"}]}, {"compound": "N[C@@H](CCC(=O)N[C@@H](CS)C(=O)NCC(=O)O)C(=O)O", "note": "[glutathione]", "values": [{"measurement": "ability to alleviate toxicity caused by alpha-synuclein overexpression", "value": "alleviate toxocity"}]}, {"compound": "NC(=O)NO", "note": "[hydroxyurea]", "values": [{"measurement": "effect on the growth of yeast cells overexpressing WT alpha-synuclein", "setting": "agent at 5 mg/ml", "value": "negative effect on the growth"}]}, {"compound": "CC1=CC(=O)c2ccccc2C1=O", "note": "[menadione]", "values": [{"measurement": "effect on the growth of yeast cells overexpressing WT alpha-synuclein", "setting": "agent at 20-50 μM", "value": "negative effect on the growth"}]}, {"compound": "C[n+]1ccc(-c2cc[n+](C)cc2)cc1", "note": "[paraquat]", "values": [{"measurement": "effect on the growth of yeast cells overexpressing WT alpha-synuclein", "setting": "agent at 1 mM", "value": "negative effect on the growth"}]}, {"compound": "NC[C@@H]1O[C@H](O[C@H]2[C@@H](O)[C@H](O[C@@H]3[C@@H](O)[C@H](N)C[C@H](N)[C@H]3O[C@H]3O[C@H](CO)[C@@H](O)[C@H](O)[C@H]3N)O[C@@H]2CO)[C@H](N)[C@@H](O)[C@@H]1O", "note": "[paromomycin]", "values": [{"measurement": "ability to alleviate toxicity caused by alpha-synuclein overexpression", "setting": "preliminary study, agent at 200 μg/ml", "value": "alleviate toxocity"}]}, {"compound": "N[C@@H](CO)C(=O)O", "note": "[serine]", "values": [{"measurement": "ability to alleviate toxicity caused by alpha-synuclein overexpression", "setting": "preliminary study, agent at 1 mg/ml", "value": "alleviate toxocity"}]}, {"compound": "NC(N)=O", "note": "[urea]", "values": [{"measurement": "effect on the growth of yeast cells overexpressing WT alpha-synuclein", "setting": "agent at 1 mg/ml", "value": "negative effect on the growth"}]}, {"compound": "[O]=[V]([O-])([O-])[O-]", "note": "[vanadate]", "values": [{"measurement": "effect on the growth of yeast cells overexpressing WT alpha-synuclein", "setting": "agent at 0.1 mM", "value": "negative effect on the growth"}, {"measurement": "effect on the growth of yeast cells overexpressing WT alpha-synuclein", "setting": "agent at 1 mM", "value": "negative effect on the growth"}, {"measurement": "effect on the growth of yeast cells overexpressing WT alpha-synuclein", "setting": "agent at 2 mM", "value": "negative effect on the growth"}, {"measurement": "effect on the growth of yeast cells overexpressing WT alpha-synuclein", "setting": "agent at 4 mM", "value": "negative effect on the growth"}, {"measurement": "effect on the growth of yeast cells overexpressing WT alpha-synuclein", "setting": "agent at 7 mM+KCl", "value": "negative effect on the growth"}]}, {"compound": "bleomycin", "values": [{"measurement": "effect on the growth of yeast cells overexpressing WT alpha-synuclein", "setting": "agent at 1 μg/ml", "value": "negative effect on the growth"}]}, {"compound": "protamine sulphate", "values": [{"measurement": "ability to alleviate toxicity caused by alpha-synuclein overexpression", "setting": "preliminary study, agent at 250 μM", "value": "alleviate toxocity"}]}]}
